From patent publication US12398151B2, “Sumo inhibitor compounds and uses thereof” (SUVALENT THERAPEUTICS, INC., priority 2019, dated 2025) come the findings set out here.

In one test the target is T1, Atg7 (Homo sapiens, UniProt O95352).
T1 sequence (O95352 1-703): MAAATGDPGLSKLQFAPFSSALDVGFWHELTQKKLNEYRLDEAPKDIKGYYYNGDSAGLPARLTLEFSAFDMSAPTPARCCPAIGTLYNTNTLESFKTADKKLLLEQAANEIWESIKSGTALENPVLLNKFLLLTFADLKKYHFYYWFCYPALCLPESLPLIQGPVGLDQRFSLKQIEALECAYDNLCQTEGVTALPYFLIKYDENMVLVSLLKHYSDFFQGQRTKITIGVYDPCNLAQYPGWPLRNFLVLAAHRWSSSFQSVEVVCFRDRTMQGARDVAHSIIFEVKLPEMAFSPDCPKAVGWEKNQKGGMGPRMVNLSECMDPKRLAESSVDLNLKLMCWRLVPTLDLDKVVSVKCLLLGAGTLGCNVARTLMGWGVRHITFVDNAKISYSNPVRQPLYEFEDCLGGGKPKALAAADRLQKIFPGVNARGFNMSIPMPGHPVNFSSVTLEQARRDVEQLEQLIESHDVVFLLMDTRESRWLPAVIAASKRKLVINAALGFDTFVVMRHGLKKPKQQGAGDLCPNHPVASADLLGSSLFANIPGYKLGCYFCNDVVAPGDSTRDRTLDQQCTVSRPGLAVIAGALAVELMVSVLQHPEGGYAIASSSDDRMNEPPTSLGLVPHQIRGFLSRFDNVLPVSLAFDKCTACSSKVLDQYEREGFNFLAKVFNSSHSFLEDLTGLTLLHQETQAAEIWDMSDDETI
The experiment in a line: Atg7 activating enzyme (E1) inhibition. The following applies: 25 uM compound, 60 min preincubation; read-out: Atg7 percent inhibition of adduct formation. The class given is biochemical. As to the method: (§1) Compounds are evaluated for their inhibitory effect on activating enzymes (E1) of ubiquitin, SUMO, Nedd8, Urm1, ISG15 or Atg7 using previously reported methods and protocols. One example is in: Allosteric inhibition of ubiquitin-like modifications by a class of inhibitor of SUMO-activating enzyme. Cell Chemical Biology, 26, 1-11, 2019. PMID: 28051857.
(§2) Compounds are tested in the following manner. The compound and SUMO E1 are incubated for a predetermined amount of time. UBC9, SUMO1, and ATP are added to the E1-compound mixture and incubated at 37° C. The reaction is quenched with Laemmli Buffer. The UBC9-SUMO1 conjugation is analyzed via SDS gel electrophoresis. The percent inhibition is measured by the intensity of the UBC9-SUMO1 band compared to the no compound control. Activities are listed as compound concentration (uM), preincubation time of E1 with compound (min), and percent inhibition of adduct formation (%). […]

For another test, the target named is T2, SUMO E1 (Homo sapiens, UniProt Q9UBT2).
T2 sequence (Q9UBT2 1-640): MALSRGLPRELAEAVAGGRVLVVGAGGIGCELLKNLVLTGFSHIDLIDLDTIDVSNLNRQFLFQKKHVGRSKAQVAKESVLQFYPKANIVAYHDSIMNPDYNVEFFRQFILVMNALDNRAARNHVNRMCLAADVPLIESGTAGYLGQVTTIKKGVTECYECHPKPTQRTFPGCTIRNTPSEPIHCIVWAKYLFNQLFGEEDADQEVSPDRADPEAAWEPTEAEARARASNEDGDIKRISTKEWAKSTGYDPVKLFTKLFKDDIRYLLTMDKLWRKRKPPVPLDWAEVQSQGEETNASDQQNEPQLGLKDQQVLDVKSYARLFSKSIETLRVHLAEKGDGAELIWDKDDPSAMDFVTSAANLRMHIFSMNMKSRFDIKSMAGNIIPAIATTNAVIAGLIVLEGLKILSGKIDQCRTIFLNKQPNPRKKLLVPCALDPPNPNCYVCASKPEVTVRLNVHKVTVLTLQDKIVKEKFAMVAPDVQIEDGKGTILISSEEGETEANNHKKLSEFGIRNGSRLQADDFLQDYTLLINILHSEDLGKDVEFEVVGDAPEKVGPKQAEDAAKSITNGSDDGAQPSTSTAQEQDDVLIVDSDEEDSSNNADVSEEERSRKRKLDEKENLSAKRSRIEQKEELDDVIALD
T2 sequence (Q9UBE0 1-346 partner): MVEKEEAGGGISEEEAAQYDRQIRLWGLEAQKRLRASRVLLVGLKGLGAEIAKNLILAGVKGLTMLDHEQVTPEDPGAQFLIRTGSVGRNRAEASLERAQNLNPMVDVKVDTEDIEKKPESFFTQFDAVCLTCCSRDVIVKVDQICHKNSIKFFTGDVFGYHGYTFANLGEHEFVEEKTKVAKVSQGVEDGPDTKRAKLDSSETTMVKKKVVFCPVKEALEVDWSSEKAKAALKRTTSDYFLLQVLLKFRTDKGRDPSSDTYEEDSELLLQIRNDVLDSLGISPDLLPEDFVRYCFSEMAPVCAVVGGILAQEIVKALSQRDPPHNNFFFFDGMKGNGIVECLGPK
The test can be described thus: SUMO E1 inhibition: UBC9-SUMO1 conjugation by SDS gel electrophoresis. The following applies: read-out: SUMO E1 percent inhibition of adduct formation; for inhibition at 10 µM: 10 uM compound; for inhibition at 25 µM: 25 uM compound; for inhibition at 9 µM: 9 uM compound; for inhibition at 3 µM: 3 uM compound, 15 min preincubation; for inhibition at 27 µM: 27 uM compound. The class given is biochemical. As to the method: as §1, §2

Each structure is given as a SMILES string. Like-named read-outs stand apart in the source and are kept apart here.

The inhibition is the change of the read-out against control, counted positive when it falls. Regarding `C=CC(=O)N1Cc2sc(Cl)cc2[C@@H](c2ccccc2)C1` [Compound 73], the inhibition at 25 µM on Atg7 is under 1%. Besides, the inhibition at 10 µM on SUMO E1 (60 min preincubation) came out at 100%.

Consider `C=CC(=O)N1Cc2sc(C)cc2[C@@H](c2ccccc2)C1` [Compound 74], for which the inhibition at 25 µM at Atg7 was under 1%; at SUMO E1 (60 min preincubation), 10%.

Take `C=CC(=O)N1Cc2cc(Cl)ccc2[C@@H](c2ccccc2C)C1` [Compound 75]: on Atg7, the inhibition at 25 µM is under 1%. The inhibition at 10 µM at SUMO E1 (60 min preincubation) came out at 100%.

Take `C=CC(=O)N1Cc2cccc(Cl)c2[C@@H](c2ccccc2C)C1` [Compound 76]: the inhibition at 25 µM on Atg7 and at SUMO E1 (60 min preincubation) was under 1% each time.

Consider `C=CC(=O)N1Cc2cc(Br)ccc2[C@@H](c2ccccc2O)C1` [Compound 77], for which the figures for the inhibition at 25 µM on Atg7 and on SUMO E1 (60 min preincubation) were 30% and 20%, respectively.

Regarding `C=CC(=O)N1Cc2cc(C#N)ccc2[C@@H](c2ccccc2)C1` [Compound 79], the inhibition at 25 µM at Atg7 and on SUMO E1 (60 min preincubation) was under 1% each time.

Take `C=CC(=O)N1Cc2cc(Cl)ccc2[C@@H](c2ccccn2)C1` [Compound 80]: the inhibition at 25 µM on Atg7 is under 1%; at SUMO E1 (30 min preincubation) it was 50%.

Consider `C=CC(=O)N1Cc2sc(CC)cc2[C@@H](c2ccccc2)C1` [Compound 82], for which the inhibition at 25 µM at Atg7 is under 1%. Besides, at SUMO E1 (30 min preincubation), the inhibition at 10 µM was 10%.

In the case of `C=CC(=O)N1Cc2oc(C)cc2[C@@H](c2ccccc2)C1` [Compound 83], the inhibition at 25 µM on Atg7 was under 1%. In addition, the inhibition at 10 µM at SUMO E1 (30 min preincubation) is under 1%.

In the case of `C=CC(=O)N1Cc2sc(Cl)cc2[C@@H](c2ccccc2C)C1` [Compound 84], the inhibition at 25 µM at Atg7 is under 1%. Besides, the inhibition at 2.5 µM on SUMO E1 (2.5 uM compound, 30 min preincubation) amounted to 90%.

For `C=CC(=O)N1Cc2cc(C)ccc2[C@@H](c2ccccc2C)C1` [Compound 85], at Atg7, the inhibition at 25 µM is under 1%. Moreover, the inhibition at 10 µM at SUMO E1 (30 min preincubation) came to 100%.

With `C=CC(=O)N1Cc2cccc(C)c2[C@@H](c2ccccc2C)C1` [Compound 86], the inhibition at 25 µM at Atg7 was under 1%. The inhibition at 10 µM on SUMO E1 (30 min preincubation) is under 1%.

With `C=CC(=O)N1Cc2cc(Cl)ccc2[C@@H](c2cccnc2)C1` [Compound 87], the inhibition at 25 µM at Atg7 was under 1%. Further, the inhibition at 9 µM on SUMO E1 (30 min preincubation) is under 1%.

Turning to `C=CC(=O)N1Cc2cc(Br)cnc2[C@@H](c2ccccc2)C1` [Compound 88], the inhibition at 25 µM at Atg7 is under 1%. On SUMO E1 (30 min preincubation), the inhibition at 9 µM was under 1%.

On to `C=CC(=O)N1Cc2sc(C)cc2[C@@H](c2ccccc2C)C1` [Compound 89], for which the inhibition at 25 µM on Atg7 was under 1%. Further, the inhibition at 9 µM on SUMO E1 (30 min preincubation) came to 95%.

On to `Cc1ccccc1[C@H]1CN(C(=O)/C=C/c2ccccc2)Cc2sc(Br)cc21` [Compound 90], for which the inhibition at 25 µM at Atg7 and on SUMO E1 (60 min preincubation) was under 1% each time.

`Cc1cc2c(s1)CN(C(=O)/C=C/c1ccccc1)C[C@@H]2c1ccccc1` [Compound 91]: the inhibition at 25 µM on Atg7 is under 1%. Besides, the inhibition at 9 µM at SUMO E1 (30 min preincubation) was under 1%.

`C=CC(=O)N1Cc2cc(Cl)ccc2[C@@H](c2ccncc2)C1` [Compound 92]: the inhibition at 25 µM at Atg7 was under 1%. Also, the inhibition at 20 µM at SUMO E1 (20 uM compound, 60 min preincubation) is 10%.

Turning to `C#CC(=O)N1Cc2sc(Cl)cc2[C@@H](c2ccccc2C)C1` [Compound 93], the inhibition at 25 µM on Atg7 amounted to 100%. Besides, the inhibition at 9 µM at SUMO E1 (30 min preincubation) stood at 95%.

Regarding `C=CC(=O)N1Cc2cc(Cl)ccc2[C@@H](c2ccc[nH]c2=O)C1` [Compound 94], the inhibition at 25 µM at Atg7 was under 1%. Besides, the inhibition at 9 µM on SUMO E1 (30 min preincubation) is under 1%.

As for `Cc1cc2c(s1)CN(C(=O)CC#N)C[C@@H]2c1ccccc1` [Compound 95], the inhibition at 25 µM at Atg7 is under 1%. The inhibition at 9 µM on SUMO E1 (30 min preincubation) is under 1%.

Take `CCS(=O)(=O)N1Cc2sc(Cl)cc2[C@@H](c2ccccc2C)C1` [Compound 96]: on Atg7, the inhibition at 25 µM was found to be 90%. Besides, the inhibition at 9 µM on SUMO E1 (30 min preincubation) was under 1%.

Turning to `C/C=C/C(=O)N1Cc2sc(Cl)cc2[C@@H](c2ccccc2C)C1` [Compound 97], the inhibition at 25 µM on Atg7 is under 1%. Moreover, the inhibition at 9 µM on SUMO E1 (30 min preincubation) is under 1%.

Turning to `C=CC(=O)N1Cc2cc(Cl)c(Cl)cc2[C@@H](c2ncccc2C)C1` [Compound 98], at Atg7, the inhibition at 25 µM is under 1%. Also, on SUMO E1 (30 min preincubation), the inhibition at 9 µM was under 1%.

For the compound `Cc1ccccc1[C@H]1CN(C(=O)/C=C/CN(C)C)Cc2sc(Cl)cc21` [Compound 99], at Atg7, the inhibition at 25 µM is under 1%. Further, on SUMO E1 (20 min preincubation), the inhibition at 9 µM is under 1%.

For the compound `C=CC(=O)N1Cc2cc(Cl)c(Cl)cc2[C@@H](c2ccccc2)C1` [Compound 100], the inhibition at 25 µM on Atg7 is under 1%. For the same compound, the inhibition at 3 µM on SUMO E1 is 30%.

For the compound `C=CC(=O)N1Cc2ccc(Cl)c(Cl)c2[C@@H](c2ccccc2)C1` [Compound 101], at Atg7, the inhibition at 25 µM is under 1%. The inhibition at 3 µM at SUMO E1 was 30%.

For the compound `C=CC(=O)N1Cc2cc(Cl)ccc2[C@@H](C2CCCCC2)C1` [Compound 102], the inhibition at 25 µM on Atg7 is under 1%. Besides, the inhibition at 9 µM on SUMO E1 (30 min preincubation) was determined as 40%.

On to `C=CC(=O)N1Cc2sc(-c3ccccc3)cc2[C@@H](c2ccccc2)C1` [Compound 103], for which the inhibition at 25 µM at Atg7 was under 1%. Moreover, the inhibition at 27 µM at SUMO E1 (30 min preincubation) was under 1%.

`C=C(F)C(=O)N1Cc2sc(Cl)cc2[C@@H](c2ccccc2C)C1` [Compound 104]: the inhibition at 25 µM at Atg7 and at SUMO E1 (30 min preincubation) was under 1% throughout.

As to `Cc1ccccc1[C@H]1CN(C(=O)[C@@H]2CO2)Cc2sc(Cl)cc21` [Compound 105], at Atg7, the inhibition at 25 µM is under 1%. On SUMO E1 (30 min preincubation), the inhibition at 27 µM is under 1%.

Take `C=C(C)C(=O)N1Cc2sc(Cl)cc2[C@@H](c2ccccc2C)C1` [Compound 106]: the inhibition at 25 µM at Atg7 was under 1%. Moreover, the inhibition at 27 µM on SUMO E1 (30 min preincubation) was under 1%.

As to `Cc1ccccc1[C@H]1CN(C(=O)CBr)Cc2sc(Cl)cc21` [Compound 107], the inhibition at 25 µM at Atg7 was found to be 100%. For the same compound, the inhibition at 9 µM at SUMO E1 (30 min preincubation) came to 100%.

Take `Cc1ccccc1[C@H]1CN(C(=O)/C=C/C(F)(F)F)Cc2sc(Cl)cc21` [Compound 108]: at Atg7, the inhibition at 25 µM is under 1%. On SUMO E1 (1 uM compound, 30 min preincubation), the inhibition at 1 µM worked out at 100%.

Turning to `C=CC(=O)N1Cc2sc(Cl)cc2[C@@H](c2ccccc2OC)C1` [Compound 109], the inhibition at 25 µM on Atg7 is 80%. For the same compound, at SUMO E1 (30 min preincubation), the inhibition at 27 µM came out at 30%.
